Read-outs that look alike come from different tables or passages of the source.
Columns and labels:
[1] = system: experimental autoimmune encephalomyelitis (EAE)
Description: The thiazolidinone was evaluated in a mouse model of experimental autoimmune encephalomyelitis (EAE). The compound was administered orally to mice sensitized with a fragment of mouse myelin basic protein to induce EAE. Two experiments were conducted using the same protocol and neurological evaluations. Test animals were dosed for 21 days, beginning 4 hours before sensitization on Day 1. The effects of the thiazolidinone were compared to a control group of mice sensitized identically and dosed with vehicle alone. Neurological evaluations continued after cessation of drug treatment. The values reported in Tables 1 and 2 below include responses during drug treatment only.
The thiazolidinone was homogenized manually with an aliquot of warm vehicle (0.5% hydroxypropyl methylcellulose with 0.2% Tween 80in water) in glass mortar tubes and homogenizing pestle. The smooth drug paste was gradually suspended in vehicle. Mice were dosed with drug and/or vehicle, […] in groups of ten (Experiment 1) or twenty (Experiment 2). Mice were dosed from Experiment Day 1 to Day 21. A sham-sensitized group was similarly dosed with vehicle or thiazolidinone 30 mg/kg (Experiment 1).
Female mice, strain PL/J(F1)×SJL/J from Jackson Labs, were sensitized s.c. (0.05 cc×2) at the base of the tail with an emulsion containing equal parts of mouse myelin basic protein (MBP) fragment (amino acids 1-9 of the N-terminus of MBP) in saline and Difco Complete Freund's Adjuvant (CFA) fortified with heat killed desiccated Mycobacteria tuberculosis (MT). Each mouse received 300 μg of the MBP fragment (230 μg free base) and 200 μg MT followed by retrobulbar (i.v.) injection of 200 ng of B. pertussis toxin in 0.2 cc of saline. Forty-eight hours later, mice received a second injection of B. pertussis toxin. Mice in Experiment 1 were 8 to 9 weeks old; mice in Experiment 2 were 11 weeks old.
Animals were weighed and evaluated for symptoms of EAE before sensitization and frequently for 21 days. EAE score: (0.5=slight limp tail, 1=limp tail or slow to right, 1.5=slight limp tail and slow to right, 2=paresis/mild paralysis or incontinence, 2.5=mild paralysis and slow to right or complete paralysis (one hind limb), 3=hind limb paralysis (both), 3.5=hind limb paralysis (both) and limp torso; 4=additional fore limb paralysis, 4.5=head movement only, 5=moribund, death after previous EAE symptoms). Evaluators were blinded as to drug treatments and previous behavioral scores.
Disease symptoms were compared among groups for EAE severity, incidence, time to onset, cumulative score, deaths, and weight loss. Peak EAE score: the mean of highest score of each mouse in a group, independent of duration of symptoms; EAE incidence: the mean number of mice showing symptoms of EAE, defined as having EAE scores on any three consecutive days that total≥3.0. EAE deaths: An animal that died must have presented previous evidence of an EAE score greater than 0.5; EAE onset: the first of a 3-day series scoring a total of≥3.0. A Cumulative EAE score is calculated for each animal. A mean of all animals' cumulative score is then determined for each day. Maximum weight loss: the mean of the lowest weight for each animal in a group. (Note: The Cumulative EAE score and the Maximum weight loss can be influenced by death which eliminates severely diseased animals. The number of days that animals are scored also affects the cumulative score and can only be compared "within-trial"). Mice that die from dosing trauma or with no previous symptoms of EAE are deleted from the study. Experimental groups were assumed to be similar and were compared for statistical significance by a two-tailed t-test (p≤0.05).

iNOS, BV-2 microglia = experiment: iNOS expression in LPS-activated BV-2 microglia (Western blot); format: cell-based
Description: BV-2 microglia were grown in 6-well tissue culture plates in DMEM/F12 media supplemented with 10% fetal calf serum. Prior to activation, cells were given fresh media containing various amounts of thiazolidinone. One hour after drug treatment, microglia were activated with lipopolysaccharide (LPS, 4 μg/mL) and placed in an incubator at 37° C. in an atmosphere containing 5% CO2. After 16 hours, cultures were evaluated for inducible nitric oxide synthase (iNOS) activity and expression. iNOS activity was determined using the Griess reaction. Cell-free culture media was mixed with an equal volume of Griess reagent (one volume of 1.0% sulfanilamide in 5% phosphoric acid mixed with one volume of 0.1% naphthylenediamine dihydrochloride in water) and incubated for 5 minutes at room temperature. Absorbance was measured at 560 nm and the concentration within a sample was determined using sodium nitrite as standard. iNOS expression was evaluated by extracting cellular protein and performing Western blot analysis using a monoclonal antibody specific for iNOS.

[2] = 13-week toxicity study in monkeys; format: in vivo, monkey
Description: (§1) As noted above, the thiazolidinone is additionally well-suited to treating elderly patients because of its long duration of action and its substantial lack of undesirable side effects. Toxicologic properties of the thiazolidinone were evaluated in single-dose oral and intravenous (IV) studies in mice and rats and multidose oral studies in rats and dogs. The thiazolidinone was tested in dogs and monkeys in escalating-dose oral toxicity to determine the most sensitive nonrodent species. […] The initial 13-week dog study was repeated to evaluate the reproducibility of the perivascular effects. Dose range-finding studies were performed in pregnant rats and rabbits, and genotoxic potential was assessed in vitro and in vivo. […] Based on exposure at the no-effect dose in definitive studies, the rat appears to be the most sensitive species followed by the dog and the monkey, albeit with minor differences in exposure between the species.

[3] = Toxicology studies in dogs; format: in vivo, dog
Description: as §1

[4] = sensitized, 30 mg oral, (a) deaths designated due to EAE
[5] = sensitized, 30 mg oral, (b) deaths due to unknown causes removed

CC(C)(C)c1cc(/C=C2\SC(N)=NC2=O)cc(C(C)(C)C)c1O [CI-1004, (Z)-5-[[3,5-bis(1,1-dimethylethyl)-4-hydroxyphenyl]methylene]-2-imino-4-thiazolidinone methanesulfonate]
deaths at ≤Day 10 ([1]; mouse, in vivo, 30 mg/kg): three deaths | Cumulative Score ([1]; sensitized, 3 mg oral): 20.3 ± 1.7 | Deaths ([1]; sensitized, 3 mg oral): 2/10 | EAE Incidence ([1]; sensitized, 3 mg oral): 10/10 | EAE Onset ([1]; sensitized, 3 mg oral): 12.2 ± 0.3 days | EAE Peak Score ([1]; sensitized, 3 mg oral): 3.7 ± 0.3 | Cumulative Score ([1]; sensitized, 10 mg oral): 10.9 ± 1.7 | Deaths ([1]; sensitized, 10 mg oral): 2/10 | EAE Incidence ([1]; sensitized, 10 mg oral): 7/10 | EAE Onset ([1]; sensitized, 10 mg oral): 12.1 ± 1.5 days | EAE Peak Score ([1]; sensitized, 10 mg oral): 3.0 ± 0.6 | daily EAE scores, incidence, cumulative EAE scores, weight loss ([1]; sensitized, 10 mg/kg): showed a suggestion of inhibition of daily EAE scores, reduced incidence, cumulative EAE scores, and weight loss | Cumulative Score [1, 4]: 10.9 ± 3.4 | Deaths [1, 4]: 3/9 | EAE Incidence [1, 4]: 7/9 | EAE Onset [1, 4]: 12.7 ± 2.2 days | EAE Peak Score [1, 4]: 3.1 ± 0.6 | Cumulative Score [1, 5]: 9.4 ± 3.4 | Deaths [1, 5]: 0/6 | EAE Incidence [1, 5]: 4/6 | EAE Onset [1, 5]: 16.0 ± 2.1 days | EAE Peak Score ([1]; sensitized, 30 mg oral, (b) deaths due to unknown causes removed, p < 0.05): 2.1 ± 0.6 | overall EAE symptoms ([1]; sensitized, 30 mg/kg, Method A): no significant reduction in overall EAE symptoms | peak EAE score and weight loss ([1]; sensitized, 30 mg/kg, Method B): significant reduction in the peak EAE score and weight loss | daily EAE scores Days 10 to 21 ([1]; sensitized, 30 mg/kg, Methods A and B): tendency to reduced daily EAE scores from Days 10 to 21, although a statistically significant reduction was seen only on Day 15 (p≤0.05) | EAE scores versus vehicle controls to Day 21 ([1]; sensitized, 3 or 10 mg/kg): did not show significantly reduced EAE scores | Cumulative Score ([1]; sham-sensitized, 30 mg oral): 1.4 ± 0.6 | Deaths ([1]; sham-sensitized, 30 mg oral): 0/9 | EAE Incidence ([1]; sham-sensitized, 30 mg oral): 0/9 | EAE Peak Score ([1]; sham-sensitized, 30 mg oral): 0.8 ± 0 | EAE symptoms and deaths in sham-sensitized mice ([1]; sham-sensitized, 30 mg/kg): showed little symptoms of disease and no deaths | iNOS protein expression (iNOS, BV-2 microglia): decrease in protein expression | ileo-cecal erosions ([2]; 13-week study, not attributed to drug): Superficial ileo-cecal erosions identified microscopically were observed | NSAID-related changes ([2]; 13 weeks): No typical NSAID-related changes were observed | hepatic enzyme induction [3]: hepatic enzyme induction which was not associated with overt organ toxicity | gastrointestinal effects ([3]; definitive 13-week studies): gastrointestinal effects | perivascular mononuclear infiltrates in brain ([3]; initial 13-week study): perivascular mononuclear infiltrates in brain were observed
